Experiment [1] addresses T1, IDO1 (Homo sapiens, UniProt P14902). Put plainly: Biochemical IDO1 assay (NFK GreenScreen). The arrangement: Recombinant full-length IDO1 (Seegers, N., et al.) and all other assay components were diluted in IDO1 reaction buffer; made in house. The following applies: recombinant full-length IDO1 25 nM, L-tryptophan 100 μM, NFK Green detection; read-out: IC50, inhibitory potency on IDO1. A digest of the protocol: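 Recombinant full-length IDO1 in 50 mM NaH2PO4 pH 7.0 with 0.05% Tween-20 and 1% glycerol converted 100 μM L-tryptophan (final) over 60 min at room temperature with compound, 0.3% DMSO.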

Experiment [2] deals with T1, IDO1. As to the kind of experiment: Cell-based assay for IDO1 in interferon-γ stimulated A-375 melanoma cells. Particulars: interferon-γ stimulation, 48 hours, read-out: IC50, cell-based IDO1 (NFK levels). The method, then:
The biological activity of IDO1 inhibitors can be measured by applying above detection methods to cells that are treated with test compound. The expression of IDO1 can be induced in many different cell lines by stimulation with IFNγ (Takikawa, O., et al., J. Biol. Chem. 263: 2041; 1988; Seegers, et al.), or IDO1 can be expressed in cells that lack endogenous IDO1 by transfection of an expression vector containing IDO1 cDNA.
A-375 melanoma cells were purchased from LGC Standards GmbH (Wesel, Germany) and cultured in DMEM tissue culture medium (Life Technologies, Bleiswijk, The Netherlands), supplemented with 10% (v/v) bovine calf serum. Compounds were dissolved in DMSO and diluted in DMEM. Final DMSO concentration in the assay was 0.4% (v/v). Eight thousand cells per well in 35 μl were seeded in a black 384-well tissue plate (cat. No. 781086; Greiner Bio-One GmbH, Frickenhausen, Germany) and allowed to adhere by incubation at 37° C., 95% humidity, and 5% CO2 overnight. Then, 5 μl of compound solution was added to the cells 1 hour prior to stimulation with 5 μl of 500 ng/ml interferon-γ (R&D Systems, Minneapolis, Minn., USA) diluted in DMEM medium. At the same time, 5 μl of L-tryptophan in 20 mM Hepes buffer pH 7.4 was added. Incubation was continued for 48 hours. To determine NFK levels, 12 μl NFK Green™ (NTRC, Oss, The Netherlands) was added to each well, and the plate was sealed and incubated for 4 hours at 37° C. Fluorescence was measured on an EnVision multimode reader (Perkin Elmer, Waltham, Mass., USA). IC50 were calculated using XLfit™ software (ID Business Solutions, Ltd., Surrey, U.K.).

The structures appear in SMILES notation. Where “and” joins values, the source holds several entries; their conditions need not be identical. Identical values can stand only once.

T1 sequence (P14902 whole entry, species assumed): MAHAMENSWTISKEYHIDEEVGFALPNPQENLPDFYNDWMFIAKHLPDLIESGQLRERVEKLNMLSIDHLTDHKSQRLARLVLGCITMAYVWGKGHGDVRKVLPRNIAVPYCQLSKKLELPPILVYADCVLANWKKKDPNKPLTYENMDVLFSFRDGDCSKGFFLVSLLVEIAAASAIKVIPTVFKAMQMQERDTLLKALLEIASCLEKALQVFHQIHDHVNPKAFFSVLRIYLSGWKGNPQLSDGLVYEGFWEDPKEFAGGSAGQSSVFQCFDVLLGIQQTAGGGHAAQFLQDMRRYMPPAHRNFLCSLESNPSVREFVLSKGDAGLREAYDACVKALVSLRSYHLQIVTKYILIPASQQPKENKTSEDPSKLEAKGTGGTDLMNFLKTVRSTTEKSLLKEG

With `O=C1CN(C(=O)c2c(F)cccc2Cl)C(c2ccc(F)c(Br)c2)N1O` (centres unmarked) [Example 45, 2-(3-Bromo-4-fluoro-phenyl)-1-(2-chloro-6-fluoro-benzoyl)-3-hydroxy-imidazolidin-4-one], the IC50 in experiment [1] was not above 1000 nM; in experiment [2] it was less than 5 µM.

On to `O=C1CN(C(=O)c2ccccc2F)C(c2ccc(F)c(Br)c2)N1O` (centres unmarked) [Example 46, 2-(3-Bromo-4-fluoro-phenyl)-1-(2-fluoro-benzoyl)-3-hydroxy-imidazolidin-4-one], for which the IC50 in experiment [1] was not above 1000 nM; in experiment [2], less than 5 µM.

With `O=C1CN(C(=O)c2ccccc2F)C(c2ccc(F)c(Cl)c2)N1O` (centres unmarked) [Example 51, 2-(3-Chloro-4-fluoro-phenyl)-1-(2-fluorobenzoyl)-3-hydroxy-imidazolidin-4-one], the figures for the IC50 in experiment [1] and in experiment [2] were not above 1000 nM and less than 5 µM, respectively.

Consider `O=C1CN(C(=O)c2c(F)cccc2F)C(c2ccc(F)c(Cl)c2)N1O` (centres unmarked) [Example 52, 2-(3-Chloro-4-fluoro-phenyl)-1-(2,6-difluorobenzoyl)-3-hydroxy-imidazolidin-4-one], for which the values for the half-inhibitory concentration (IC50) in experiment [1] and in experiment [2] were not above 1000 nM and less than 5 µM, respectively.

As to `O=C1CN(C(=O)c2c(F)cccc2Cl)C(c2ccc(F)c(Cl)c2)N1O` (centres unmarked) [Example 53, 1-(2-Chloro-6-fluoro-benzoyl)-2-(3-chloro-4-fluoro-phenyl)-3-hydroxy-imidazolidin-4-one], the IC50 in experiment [1] was not above 1000 nM; in experiment [2] it was less than 5 µM.

Consider `O=C1CN(C(=O)c2ccc(F)cc2F)C(c2cccc(Br)c2)N1O` (centres unmarked) [Example 54, 2-(3-Bromophenyl)-1-(2,4-difluorobenzoyl)-3-hydroxy-imidazolidin-4-one], for which the results for the IC50 in experiment [1] and in experiment [2] were not above 1000 nM and less than 5 µM, respectively.

Take `O=C1CN(C(=O)c2ccc(F)cc2F)C(c2cccc(Cl)c2)N1O` (centres unmarked) [Example 59, 2-(3-Chlorophenyl)-1-(2,4-difluorobenzoyl)-3-hydroxy-imidazolidin-4-one]: the figures for the IC50 in experiment [1] and in experiment [2] were not above 1000 nM and less than 5 µM, respectively.

On to `O=C1CN(C(=O)c2c(F)c(F)c(F)c(F)c2F)C(c2cccc(Br)c2)N1O` (centres unmarked) [Example 62, 2-(3-Bromophenyl)-3-hydroxy-1-(2,3,4,5,6-pentafluorobenzoyl)imidazolidin-4-one], for which the IC50 in experiment [1] is not above 1000 nM; in experiment [2] it was less than 5 µM.

Consider `COc1cc(F)c(C(=O)N2CC(=O)N(O)C2c2cccc(Br)c2)c(F)c1` (centres unmarked) [Example 66, 2-(3-Bromophenyl)-1-(2,6-difluoro-4-methoxy-benzoyl)-3-hydroxy-imidazolidin-4-one], for which the IC50 in experiment [1] was not above 1000 nM; in experiment [2], less than 5 µM.

As for `O=C1CN(C(=O)c2c(F)cccc2F)C(c2cccc([N+](=O)[O-])c2)N1O` (centres unmarked) [Example 67, 1-(2,6-Difluorobenzoyl)-3-hydroxy-2-(3-nitrophenyl)imidazolidin-4-one], the IC50 in experiment [1] is not above 1000 nM; in experiment [2], less than 5 µM.

Take `O=C1CN(C(=O)c2c(F)cccc2F)C(c2cccc(I)c2)N1O` (centres unmarked) [Example 71, 1-(2,6-Difluorobenzoyl)-3-hydroxy-2-(3-iodophenyl)imidazolidin-4-one]: the IC50 in experiment [1] is not above 1000 nM; in experiment [2], less than 5 µM.

Turning to `O=C1CN(C(=O)c2c(F)cccc2Cl)C(c2cccc(I)c2)N1O` (centres unmarked) [Example 72, 1-(2-chloro-6-fluoro-benzoyl)-3-hydroxy-2-(3-iodophenyl)imidazolidin-4-one], the IC50 in experiment [1] was not above 1000 nM; in experiment [2], less than 5 µM.

Regarding `O=C1CN(C(=O)c2ccccc2F)C(c2cccc(I)c2)N1O` (centres unmarked) [Example 73, 1-(2-Fluorobenzoyl)-3-hydroxy-2-(3-iodophenyl)imidazolidin-4-one], the figures for the IC50 in experiment [1] and in experiment [2] were not above 1000 nM and less than 5 µM, respectively.

Regarding `Nc1ccc(F)c(C(=O)N2CC(=O)N(O)C2c2cccc(Br)c2)c1F` (centres unmarked) [Example 76, 1-(3-Amino-2,6-difluoro-benzoyl)-2-(3-bromophenyl)-3-hydroxy-imidazolidin-4-one], the IC50 in experiment [1] is not above 1000 nM; in experiment [2] it was less than 5 µM.

On to `O=C1CN(C(=O)c2c(F)cc(F)cc2F)C(c2cccc(Br)c2)N1O` (centres unmarked) [Example 82, 2-(3-Bromophenyl)-3-hydroxy-1-(2,4,6-trifluorobenzoyl)imidazolidin-4-one], for which the figures for the IC50 in experiment [1] and in experiment [2] were not above 1000 nM and less than 5 µM, respectively.

For `O=C1CN(C(=O)c2c(F)cc(Br)cc2F)C(c2cccc(Br)c2)N1O` (centres unmarked) [Example 85, 1-(4-Bromo-2,6-difluoro-benzoyl)-2-(3-bromophenyl)-3-hydroxy-imidazolidin-4-one], the IC50 was not above 1000 nM in experiment [1] and less than 5 µM in experiment [2].

As to `O=C1CN(C(=O)c2ccncc2F)C(c2cccc(Br)c2)N1O` (centres unmarked) [Example 86, 2-(3-Bromophenyl)-1-(3-fluoropyridine-4-carbonyl)-3-hydroxy-imidazolidin-4-one], the IC50 is not above 1000 nM in experiment [1] and less than 5 µM in experiment [2].

Regarding `O=C1CN(C(=O)c2cccnc2F)C(c2cccc(Br)c2)N1O` (centres unmarked) [Example 87, 2-(3-Bromophenyl)-1-(2-fluoropyridine-3-carbonyl)-3-hydroxy-imidazolidin-4-one], the concentration for half-maximal inhibition (IC50) in experiment [1] was not above 1000 nM; in experiment [2] it was less than 5 µM.

As to `C#Cc1cccc(C2N(O)C(=O)CN2C(=O)c2c(F)cccc2F)c1` (centres unmarked) [Example 98, 1-(2,6-Difluorobenzoyl)-2-(3-ethynylphenyl)-3-hydroxy-imidazolidin-4-one], the IC50 in experiment [1] was not above 1000 nM; in experiment [2] it was less than 5 µM.

For `O=C1CN(C(=O)c2c(F)cccc2F)C(c2cccc(C3CC3)c2)N1O` (centres unmarked) [Example 99, 2-(3-Cyclopropylphenyl)-1-(2,6-difluorobenzoyl)-3-hydroxy-imidazolidin-4-one], the IC50 in experiment [1] was ≤ 5000 nM and 1000 to 5000 nM; in experiment [2] it was less than 5 µM.

For the compound `O=C1CN(C(=O)c2c(F)cc(C#CC3CC3)cc2F)C(c2cccc(Br)c2)N1O` (centres unmarked) [Example 106, 2-(3-Bromophenyl)-1-[4-(2-cyclopropylethynyl)-2,6-difluoro-benzoyl]-3-hydroxy-imidazolidin-4-one], the IC50 was not above 1000 nM in experiment [1] and less than 5 µM in experiment [2].

On to `CC(C)C#Cc1cc(F)c(C(=O)N2CC(=O)N(O)C2c2cccc(Br)c2)c(F)c1` (centres unmarked) [Example 107, 2-(3-Bromophenyl)-1-[2,6-difluoro-4-(3-methylbut-1-ynyl)benzoyl]-3-hydroxy-imidazolidin-4-one], for which the figures for the IC50 in experiment [1] and in experiment [2] were not above 1000 nM and less than 5 µM, respectively.

For `O=C1CN(C(=O)c2c(F)cc(C#CC3CCCCC3)cc2F)C(c2cccc(Br)c2)N1O` (centres unmarked) [Example 108, 2-(3-Bromophenyl)-1-[4-(2-cyclohexylethynyl)-2,6-difluoro-benzoyl]-3-hydroxy-imidazolidin-4-one], the results for the IC50 in experiment [1] and in experiment [2] were not above 1000 nM and less than 5 µM, respectively.

Take `O=C1CN(C(=O)c2c(F)cc(C3CC3)cc2F)C(c2cccc(Br)c2)N1O` (centres unmarked) [Example 114, 2-(3-Bromophenyl)-1-(4-cyclopropyl-2,6-difluoro-benzoyl)-3-hydroxy-imidazolidin-4-one]: the IC50 in experiment [1] was not above 1000 nM; in experiment [2] it was less than 5 µM.

With `C=Cc1cc(F)c(C(=O)N2CC(=O)N(O)C2c2cccc(Br)c2)c(F)c1` (centres unmarked) [Example 115, 2-(3-Bromophenyl)-1-(2,6-difluoro-4-vinyl-benzoyl)-3-hydroxy-imidazolidin-4-one], the IC50 is not above 1000 nM in experiment [1] and less than 5 µM in experiment [2].

The values are drawn from patent publication US10494360B2, “Inhibitors of indoleamine 2,3-dioxygenase” (NETHERLANDS TRANSLATIONAL RESEARCH CENTER B.V., priority 2016, dated 2019).
